Measured values published in patent publication US20160089391A1, “Molecular Targets for Cardiovascular Disease” (Temple University-of the Commonwealth System of Higher …, priority 2014, published 2016).

Columns and labels:
eNOS-pThr495 = eNOS-pThr495 protein levels in HAECs; format: cell-based, human; settings: for eNOS-pThr497/495 levels increase: HAECs, DL-Hcy 500 μmol/L or D-Glu 25 mmol/L
Description: (FIG. 7A). eNOS protein levels in mouse aorta of Cbs^−/+ mice (Left Panel) and HAECs (Right Panel). (FIG. 7B). eNOS-pThr497/495 protein levels in mouse aorta of Cbs^−/+ mice (Left Panel) and in HAECs (Right Panel). At the age of 8-week, Cbs^−/+ mice were fed with a high methionine diet (HM, methionine: 2% w/w) for 8 weeks, and/or injected with streptozotocin (STZ, i.p., 40 mg/kg) for 5 consecutive days starting from the first day of experiment. Mice fed with a control diet (CT, methionine: 0.37% w/w) and injected with vehicle (50 mmol/L citrate buffer) served as controls. Human aortic endothelial cells (HAECs, passage 8-9) were cultured in EC medium which contains 5 mmol/L D-glucose (D-Glu), treated with DL-homocysteine (DL-Hcy, 500 μmol/L) and/or D-Glu (25 mmol/L). (FIG. 7C). eNOS-pThr495 protein levels in HAECs. HAECs (passage 8-9) were cultured in EC medium which contains 5 mmol/L D-glucose (D-Glu), treated with DL-homocysteine (DL-Hcy, 500 μmol/L) and D-Glu (25 mmol/L for 48 hrs with or without non-specific PKC inhibitor GF109203X (GFX) (2 μmol/L, 30 min.); control adenoviruse (Ad-CT, 200 MOI, 72 hrs), dominant negative PKCβ2 adenovirus (Adv-dnPKCβ2, 200 MOI, 72 hrs); μ-calpain siRNA (μ-calpsiRNA, Santa Cruz #sc-29885, 72 hrs), or MDL ([…], 48 hrs, Sigma #M6690). (FIG. 7D). Transfection effect of Adv-dnPKCβ2in HAECs. Cultured HAECs (passage 8, 80% confluence) were treated with 12.5, 25, 50, 100 and 200 MOI Adv-dnPKCβ2 for 48 hrs. n=3, *p<0.05 vs control; †p<0.05 vs DL-Hcy-treated HAECs; ‡p<0.05 vs D-Glu-treated HAECs; #p<0.05 vs DL-Hcy/D-Glu-treated HAECs. Cbs, cystathionine β-synthase; eNOS, endothelial nitric oxide synthase; eNOS-pThr495/497, phosphorylation of eNOS at threonine 497 (mouse)/495 (human).
Human aortic endothelial cells (HAECs) were cultured in cell culture medium (M199, HyClone) as previously described (Wang et al., 1997, J Biol Chem 272:25380-25385). The HAECs were treated with DL-Hcy (200 or 500 μmol/L) and/or D-glucose (D-Glu, 25 mmol/L) for 24 or 48 hrs in the presence or absence of selected pharmacological inhibitors or siRNA or adenovirus.

NO production in HAECs = NO production in HAECs by DAF-FM staining; format: cell-based, human; settings: for NO generation: HAECs, DL-Hcy 500 μmol/L and/or D-Glu 25 mmol/L for 48 hrs
Description: (FIG. 6A). Images of NO. Nitric oxide (NO) production in HAECs was measured by staining intact HAECs with NO marker DAF-FM. N^G-nitro-L-arginine methyl ester (L-NAME, 100 μmol/L, Sigma #N5751) was added in the last hour as a negative control. (FIG. 6B). Quantification of NO. (FIG. 6C). eNOS activity. Human aortic endothelial cells (HAECs) were cultured in EC medium which contains 5 mmol/L D-Glucose (D-Glu), and treated with DL-homocysteine (DL-Hcy, 500 μmol/L) and/or (D-Glu, 25 mmol) without or with MDL28170 (MDL) for 48 hrs, CTsiRNA or μ-calpsiRNA for 72 hrs. L-NAME (100 μmol/L) was added in the last hour. NO was measured by staining intact HAECs with NO marker (DAF-FM, 10 μmol/L, Sigma #D2321, 30 mins.). Endothelial nitric oxide synthase (eNOS) activity was assessed by measuring of ^3H-L-arginine conversion to ^3H-citrulline in intact HAECs. n=3, *p<0.05 vs control; †p<0.05 vs DL-Hcy-treated HAECs; ‡p<0.05 vs D-Glu-treated HAECs; #p<0.05 vs DL-Hcy/D-Glu-treated HAECs. DAF-FM, 4-Amino-5-methylamino-2′,7′-difluorescein; CTsiRNA, control siRNA; HG, hyperglycemia; HHcy, hyperhomocysteinemia; μ-calpsiRNA, μ-calpain siRNA.
HAECs treated with or without DL-Hcy and/or D-Glu for 48 hrs were stained with 4-Amino-5-Methylamino-2′,7′-Difluorofluorescein (DAF-FM). To explore the role of calpain, especially μ-calpain, the DL-Hcy/D-Glu-treated HAECs were also treated with MDL28170 (MDL, 20 μmol/L) and μ-calpain siRNA, respectively. HAECs treated with L-NAME (100 μmol/L) for 1 hr before DAF-FM staining were used as negative controls. eNOS activity in HAECs was determined by measuring the conversion of ^3H-Arg to ^3H-citrulline in intact cells as previous described (Jiang et al., 2005, Arterioscl Throm Vas 25:2515-2521).

| Molecule | eNOS-pThr497/495 levels increase (eNOS-pThr495) [fold] | NO generation (NO production in HAECs) | HHcy/HG-induced eNOS-pThr495 (eNOS-pThr495; HAECs with DL-Hcy 500 μmol/L and D-Glu 25 mmol/L 48 hrs, GFX 2 μmol/L 30 min, MDL 20 mmol/L 48 hrs, Adv-dnPKCβ2 200 MOI 72 hrs, siRNA 72 hrs) | NO production (NO production in HAECs; HHcy/HG (DL-Hcy/D-Glu)-treated HAECs, improved from 26%, MDL 20 μmol/L 48 hrs, siRNA 72 hrs) [%] |
| --- | --- | --- | --- | --- |
| NC(CCS)C(=O)O (racemic) [DL-Hcy, DL-homocysteine] | 1.6 | 78 % of the control | – | – |
| O=C[C@H](O)[C@@H](O)[C@H](O)[C@H](O)CO [D-Glu, D-glucose] | 1.5 | 36 % of the control | – | – |
| MDL28170 | – | – | completely rescued | 86 |
